According to the supplement of paper PMC10307832:

These cell lines were tested with CC1=NN=C(O1)C2=NN=C(C=C2)N3CCC(CC3)OC4=C(C=CC(=C4)F)Cl + CS(=O)(=O)CCNCc1ccc(-c2ccc3ncnc(Nc4ccc(OCc5cccc(F)c5)c(Cl)c4)c3c2)o1 [Lapatinib] (partner 2 µM) (assay: relative viability (nuclei count vs DMSO), 5 days (fraction); higher = more cells survive). Details: first compound 0.253 µM.
In short: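 After 5 days of treatment, lung cancer cells in 1536-well plates were fixed and stained in a single step (final 0.05% Triton X-100, 1% formaldehyde, 1 ug/ml Hoechst) and their nuclei counted on 4× images. Treatment had been applied by pin tool the day after seeding as one drug alone or as a fixed anchor-drug dose with five library-drug doses (not always all listed) in √10 steps. Relative viability is the nuclei count of treated wells divided by that of vehicle wells, and values are medians of duplicate plates.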

Cell Line | relative viability
NCI-H23 | 1.03
Calu-6 | 0.65
HCC-366 | 0.384
NCI-H1755 | 0.59
NCI-H838 | 0.86
LK-2 | 0.982
NCI-H2347 | 0.557
SK-MES-1 | 0.452
H3255 | 0.24
COR-L23 | 0.811
COR-L 105 | 0.349
IA-LM | 0.283
LU99A | 1.02
NCI-H2170 | 0.268
NCI-H460 | 0.313
HOP-62 | 0.799
HCC-44 | 0.324

Cell Line | relative viability
A549 | 0.523
LXF-289 | 0.643
BEN | 0.607
HARA | 0.397
HCC-78 | 0.401
NCI-H647 | 0.673
LCLC-97TM1 | 0.827
NCI-H2126 | 0.552
A-427 | 0.818
NCI-H650 | 0.999
RERF-LC-KJ | 0.623
NCI-H1915 | 0.431
NCI-H661 | 0.541
NCI-H1395 | 0.849
201T | 0.392
NCI-H2023 | 0.441
HCC-827 | 0.201

Same assay, conditions: first compound 0.8 µM

Cell Line | relative viability
Calu-6 | 0.604
HCC-366 | 0.41
NCI-H1755 | 0.708
NCI-H838 | 0.645
LK-2 | 0.945
NCI-H2347 | 0.631
SK-MES-1 | 0.528
H3255 | 0.193
COR-L23 | 0.761
COR-L 105 | 0.36
IA-LM | 0.241
LU99A | 0.952
NCI-H2170 | 0.241
NCI-H460 | 0.326
HCC-44 | 0.439
A549 | 0.365

Cell Line | relative viability
LXF-289 | 0.672
BEN | 0.729
HARA | 0.363
HCC-78 | 0.351
NCI-H647 | 0.667
NCI-H2126 | 0.759
NCI-H650 | 0.833
RERF-LC-KJ | 0.545
NCI-H1915 | 0.334
NCI-H661 | 0.477
NCI-H1975 | 0.746
NCI-H1395 | 0.782
201T | 0.471
NCI-H2023 | 0.407
HCC-827 | 0.197

Same assay, conditions: first compound 2.53 µM

Cell Line | relative viability
NCI-H23 | 0.955
Calu-6 | 0.636
HCC-366 | 0.393
NCI-H1755 | 0.665
NCI-H838 | 0.842
LK-2 | 0.947
NCI-H2347 | 0.593
SK-MES-1 | 0.445
H3255 | 0.266
COR-L23 | 0.756
COR-L 105 | 0.332
IA-LM | 0.257
